Data taken from patent US20260191968A1, “PROTAC DEGRADERS OF MLLT1 AND/OR MLLT3” (DARK BLUE THERAPEUTICS LTD, priority 2024, published 2026).

Biological target: T1, MLLT1 (Homo sapiens, UniProt Q03111)
T1 construct: host or cells: MV4-11
T1 sequence (Q03111 1-559): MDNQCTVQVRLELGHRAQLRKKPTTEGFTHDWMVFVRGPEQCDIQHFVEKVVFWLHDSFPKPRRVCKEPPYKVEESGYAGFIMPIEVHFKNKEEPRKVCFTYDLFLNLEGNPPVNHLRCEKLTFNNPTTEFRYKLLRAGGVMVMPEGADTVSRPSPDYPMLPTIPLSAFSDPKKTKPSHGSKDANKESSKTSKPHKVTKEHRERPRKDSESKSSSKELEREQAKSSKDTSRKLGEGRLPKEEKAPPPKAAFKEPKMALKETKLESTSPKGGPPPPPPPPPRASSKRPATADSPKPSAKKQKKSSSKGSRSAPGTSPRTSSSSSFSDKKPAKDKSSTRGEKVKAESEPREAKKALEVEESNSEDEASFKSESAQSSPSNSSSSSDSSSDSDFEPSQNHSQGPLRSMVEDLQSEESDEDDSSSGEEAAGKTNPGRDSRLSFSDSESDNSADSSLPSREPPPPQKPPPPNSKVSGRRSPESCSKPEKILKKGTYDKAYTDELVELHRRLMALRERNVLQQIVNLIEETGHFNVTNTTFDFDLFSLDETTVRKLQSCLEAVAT
Test: MLLT1 degradation assay in MV4-11 cells (JESS chemiluminescent detection), three concentrations, 24 h
Type: cell-based
Conditions: with respect to DMSO control
Method: MLLT1 degradation efficacy of compounds were tested in an automated chemiluminescent detection system (JESS, Cat #004-650). […] 10 mM DMSO stocks were prepared, and cells were treated with three concentrations of test compounds viz. 1000, 100 and 10 nM at a final DMSO concentration of 0.1% and incubated for 24 h at 37° C., 5% CO2. […] Post run, data were analysed using “Compass for SW” software for chemiluminescent detection. The peak area for each band was used for the calculation of MLLT1 degradation with respect to DMSO control. Data is shown as “MLLT1% degradation”.

| SMILES | MLLT1% Degradation @ 0.01 μM | MLLT1% Degradation @ 0.1 μM | MLLT1% Degradation @ 1 μM |
| --- | --- | --- | --- |
| C[C@@H]1CN(CC2CCN(c3cccc4c3CN(C3CCC(=O)NC3=O)C4=O)CC2)CCN1c1ccc(C(=O)Nc2cc3[nH]c([C@H]4CCCN4C)cc3cn2)cc1 (relative stereo) [Example 134, 4-((R)-4-((1-(2-((rel-R)-2,6-dioxopiperidin-3-yl)-1-oxoisoindolin-4-yl)piperidin-4-yl)methyl)-2-methylpiperazin-1-yl)-N-(2-((R)-1-methylpyrrolidin-2-yl)-1H-pyrrolo[3,2-c]pyridin-6-yl)benzamide] | B (Category B: 50% ≤ B < 75% degradation) | A (Category A: A ≥ 75% degradation) | A (Category A: A ≥ 75% degradation) |
| CN1CCC[C@@H]1c1cc2cnc(NC(=O)c3ccc(CCCC4CCN(c5cccc6c5CN(C5CCC(=O)NC5=O)C6=O)CC4)cc3)cc2[nH]1 (stereo in doubt) [Example 78, 4-(3-(1-(2-((rel-R)-2,6-dioxopiperidin-3-yl)-1-oxoisoindolin-4-yl)piperidin-4-yl)propyl)-N-(2-((R)-1-methylpyrrolidin-2-yl)-1H-pyrrolo[3,2-c]pyridin-6-yl)benzamide] | B (Category B: 50% ≤ B < 75% degradation) | A (Category A: A ≥ 75% degradation) | A (Category A: A ≥ 75% degradation) |
| CN1CCC[C@@H]1c1cc2cnc(NC(=O)c3ccc(OCCC4CCN(c5cccc6c5CN(C5CCC(=O)NC5=O)C6=O)CC4)cc3)cc2[nH]1 (stereo in doubt) [Example 80, 4-(2-(1-(2-((rel-S)-2,6-dioxopiperidin-3-yl)-1-oxoisoindolin-4-yl)piperidin-4-yl)ethoxy)-N-(2-((R)-1-methylpyrrolidin-2-yl)-1H-pyrrolo[3,2-c]pyridin-6-yl)benzamide] | A (Category A: A ≥ 75% degradation) | A (Category A: A ≥ 75% degradation) | A (Category A: A ≥ 75% degradation) |
| CN1CCC[C@@H]1c1cc2cnc(NC(=O)c3ccc(OCCC4CCN(c5cccc6c5CN(C5CCC(=O)NC5=O)C6=O)CC4)cc3)cc2[nH]1 (stereo in doubt) [Example 81, 4-(2-(1-(2-((rel-R)-2,6-dioxopiperidin-3-yl)-1-oxoisoindolin-4-yl)piperidin-4-yl)ethoxy)-N-(2-((R)-1-methylpyrrolidin-2-yl)-1H-pyrrolo[3,2-c]pyridin-6-yl)benzamide] | A (Category A: A ≥ 75% degradation) | A (Category A: A ≥ 75% degradation) | A (Category A: A ≥ 75% degradation) |
| CN1CCC[C@@H]1c1cc2cnc(NC(=O)c3ccc(OC4CCN(CC5CCN(c6cccc7c6CN(C6CCC(=O)NC6=O)C7=O)CC5)CC4)cc3)cc2[nH]1 (stereo in doubt) [Example 123, 4-((1-((1-(2-((rel-R)-2,6-dioxopiperidin-3-yl)-1-oxoisoindolin-4-yl)piperidin-4-yl)methyl)piperidin-4-yl)oxy)-N-(2-((R)-1-methylpyrrolidin-2-yl)-1H-pyrrolo[3,2-c]pyridin-6-yl)benzamide] | A (Category A: A ≥ 75% degradation) | A (Category A: A ≥ 75% degradation) | A (Category A: A ≥ 75% degradation) |
| CN1CCC[C@@H]1c1[nH]c2cc(NC(=O)c3ccc(OCCC4CCN(c5cccc6c5CN(C5CCC(=O)NC5=O)C6=O)CC4)cc3)ncc2c1Cl (stereo in doubt) [Example 162, N-(3-chloro-2-((R)-1-methylpyrrolidin-2-yl)-1H-pyrrolo[3,2-c]pyridin-6-yl)-4-(2-(1-(2-((rel-R)-2,6-dioxopiperidin-3-yl)-1-oxoisoindolin-4-yl)piperidin-4-yl)ethoxy)benzamide] | A (Category A: A ≥ 75% degradation) | A (Category A: A ≥ 75% degradation) | A (Category A: A ≥ 75% degradation) |
| CN1CCC[C@@H]1c1cc2cnc(NC(=O)c3ccc(OCCC4CCN(c5cccc6c5CN(C5CCC(=O)NC5=O)C6=O)CC4)cc3F)cc2[nH]1 (stereo in doubt) [Example 173, 4-(2-(1-(2-((rel-R)-2,6-dioxopiperidin-3-yl)-1-oxoisoindolin-4-yl)piperidin-4-yl)ethoxy)-2-fluoro-N-(2-((R)-1-methylpyrrolidin-2-yl)-1H-pyrrolo[3,2-c]pyridin-6-yl)benzamide] | B (Category B: 50% ≤ B < 75% degradation) | A (Category A: A ≥ 75% degradation) | A (Category A: A ≥ 75% degradation) |
| CN1CCC[C@@H]1c1cc2cnc(NC(=O)N3CCC(CCC#Cc4cccc5c4CN(C4CCC(=O)NC4=O)C5=O)CC3)cc2[nH]1 (stereo partly drawn) [Example 1, 4-(4-(2-(2,6-dioxopiperidin-3-yl)-1-oxoisoindolin-4-yl)but-3-yn-1-yl)-N-(2-((R)-1-methylpyrrolidin-2-yl)-1H-pyrrolo[3,2-c]pyridin-6-yl)piperidine-1-carboxamide] | C (Category C: 25% ≤ C < 50% degradation) | C (Category C: 25% ≤ C < 50% degradation) | C (Category C: 25% ≤ C < 50% degradation) |
| CN1CCC[C@@H]1c1cc2cnc(NC(=O)c3ccc(N4CCN(CC5CCN(c6cccc7c6C(=O)N(C6CCC(=O)NC6=O)C7=O)CC5)CC4)nc3)cc2[nH]1 (stereo partly drawn) [Example 5, 6-(4-((1-(2-(2,6-dioxopiperidin-3-yl)-1,3-dioxoisoindolin-4-yl)piperidin-4-yl)methyl)piperazin-1-yl)-N-(2-((R)-1-methylpyrrolidin-2-yl)-1H-pyrrolo[3,2-c]pyridin-6-yl)nicotinamide] | B (Category B: 50% ≤ B < 75% degradation) | A (Category A: A ≥ 75% degradation) | A (Category A: A ≥ 75% degradation) |
| CN1CCC[C@@H]1c1cc2cnc(NC(=O)c3ccc(CCCCC#Cc4cccc5c4CN(C4CCC(=O)NC4=O)C5=O)nc3)cc2[nH]1 (stereo partly drawn) [Example 10, 6-(6-(2-(2,6-dioxopiperidin-3-yl)-1-oxoisoindolin-4-yl)hex-5-yn-1-yl)-N-(2-((R)-1-methylpyrrolidin-2-yl)-1H-pyrrolo[3,2-c]pyridin-6-yl) nicotinamide] | A (Category A: A ≥ 75% degradation) | A (Category A: A ≥ 75% degradation) | B (Category B: 50% ≤ B < 75% degradation) |
| CN1CCC[C@@H]1c1cc2cnc(NC(=O)c3ccc(CCCC#Cc4ccc(C(=O)N[C@H]5CCC(=O)NC5=O)nc4)cc3)cc2[nH]1 [Example 11, N—((S)-2,6-dioxopiperidin-3-yl)-5-(5-(4-((2-((R)-1-methylpyrrolidin-2-yl)-1H-pyrrolo[3,2-c]pyridin-6-yl)carbamoyl)phenyl)pent-1-yn-1-yl)picolinamide] | D (Category D: D < 25% degradation) | C (Category C: 25% ≤ C < 50% degradation) | B (Category B: 50% ≤ B < 75% degradation) |
| CN1CCC[C@@H]1c1cc2cnc(NC(=O)c3ccc(C4CCN(c5cccc6c5C(=O)N(C5CCC(=O)NC5=O)C6=O)CC4)cc3)cc2[nH]1 (stereo partly drawn) [Example 15, 4-(1-(2-(2,6-dioxopiperidin-3-yl)-1,3-dioxoisoindolin-4-yl)piperidin-4-yl)-N-(2-((R)-1-methylpyrrolidin-2-yl)-1H-pyrrolo[3,2-c]pyridin-6-yl)benzamide] | B (Category B: 50% ≤ B < 75% degradation) | A (Category A: A ≥ 75% degradation) | B (Category B: 50% ≤ B < 75% degradation) |
| CN1CCC[C@@H]1c1cc2cnc(NC(=O)c3ccc(N4CCC(OCC5CCN(c6cccc7c6C(=O)N(C6CCC(=O)NC6=O)C7=O)CC5)CC4)nc3)cc2[nH]1 (stereo partly drawn) [Example 18, 6-(4-((1-(2-(2,6-dioxopiperidin-3-yl)-1,3-dioxoisoindolin-4-yl)piperidin-4-yl)methoxy)piperidin-1-yl)-N-(2-((R)-1-methylpyrrolidin-2-yl)-1H-pyrrolo[3,2-c]pyridin-6-yl)nicotinamide] | B (Category B: 50% ≤ B < 75% degradation) | A (Category A: A ≥ 75% degradation) | A (Category A: A ≥ 75% degradation) |
| CN1CCC[C@@H]1c1cc2cnc(NC(=O)c3ccc(OCC#Cc4cccc5c4CN(C4CCC(=O)NC4=O)C5=O)c(Cl)c3)cc2[nH]1 (stereo partly drawn) [Example 23, 3-chloro-4-((3-(2-(2,6-dioxopiperidin-3-yl)-1-oxoisoindolin-4-yl)prop-2-yn-1-yl)oxy)-N-(2-((R)-1-methylpyrrolidin-2-yl)-1H-pyrrolo[3,2-c]pyridin-6-yl)benzamide] | C (Category C: 25% ≤ C < 50% degradation) | C (Category C: 25% ≤ C < 50% degradation) | C (Category C: 25% ≤ C < 50% degradation) |
